Test results taken from the NIST ThermoML archive (doi:10.1021/je060271a).
Several values for one entry are separate records, joined by “and”; a condition that tells them apart may be missing. Equal entries are not always repeated. Numbers after ± are expanded uncertainties.

Conditions: 303.15 K, Liquid, Vibrating tube method

CCCCCC(=O)OCC(COC(=O)CCCCC)(COC(=O)CCCCC)COC(=O)CCCCC [pentaerythritol tetrahexanoate]
Conditions | mass density
8586.4 kPa | 993.8 ± 1.2 kg/m3
8609.7 kPa | 993.8 ± 1.2 kg/m3
8636.8 kPa | 993.8 ± 1.2 kg/m3
8659.9 kPa | 993.9 ± 1.2 kg/m3
8683.2 kPa | 993.9 ± 1.2 kg/m3
8710.9 kPa | 993.9 ± 1.2 kg/m3
8734.7 kPa | 993.9 ± 1.2 kg/m3
8758.2 kPa | 993.9 ± 1.2 kg/m3
8782.3 kPa | 993.9 ± 1.2 kg/m3
8806.3 kPa | 994 ± 1.2 kg/m3
8834.9 kPa | 994 ± 1.2 kg/m3
8858 kPa | 993.9 ± 1.2 kg/m3
8886.3 kPa | 994 ± 1.2 kg/m3
8910.4 kPa | 994 ± 1.2 kg/m3
8934.4 kPa | 994 ± 1.2 kg/m3
8958.2 kPa | 994 ± 1.2 kg/m3
8987 kPa | 993.9 ± 1.2 kg/m3
9010.8 kPa | 994.1 ± 1.2 kg/m3
9035.1 kPa | 994.1 ± 1.2 kg/m3
9064.4 kPa | 994.1 ± 1.2 kg/m3
9088.5 kPa | 994.1 ± 1.2 kg/m3
9118.9 kPa | 994.2 ± 1.2 kg/m3
9143 kPa | 994.1 ± 1.2 kg/m3
9168.2 kPa | 994.3 ± 1.2 kg/m3
9192.8 kPa | 994.1 ± 1.2 kg/m3
9222.6 kPa | 994.1 ± 1.2 kg/m3
9247.5 kPa | 994.2 ± 1.2 kg/m3
9272.5 kPa | 994.3 ± 1.2 kg/m3
9301.8 kPa | 994.2 ± 1.2 kg/m3
9327.6 kPa | 994.2 ± 1.2 kg/m3
9352.8 kPa | 994.4 ± 1.2 kg/m3
9378.4 kPa | 994.3 ± 1.2 kg/m3
9409.1 kPa | 994.3 ± 1.2 kg/m3
9434.6 kPa | 994.3 ± 1.2 kg/m3
9461.4 kPa | 994.4 ± 1.2 kg/m3
9492.2 kPa | 994.3 ± 1.2 kg/m3
9517.5 kPa | 994.3 ± 1.2 kg/m3
9543.4 kPa | 994.4 ± 1.2 kg/m3
9574.4 kPa | 994.4 ± 1.2 kg/m3
9600.4 kPa | 994.5 ± 1.2 kg/m3
9627 kPa | 994.4 ± 1.2 kg/m3
9658 kPa | 994.6 ± 1.2 kg/m3
9684.2 kPa | 994.6 ± 1.2 kg/m3
9710.4 kPa | 994.5 ± 1.2 kg/m3
9742.2 kPa | 994.4 ± 1.2 kg/m3
9768.8 kPa | 994.5 ± 1.2 kg/m3
9796.2 kPa | 994.6 ± 1.2 kg/m3
9828.9 kPa | 994.6 ± 1.2 kg/m3
9855.9 kPa | 994.7 ± 1.2 kg/m3
9882.5 kPa | 994.6 ± 1.2 kg/m3
9909.3 kPa | 994.6 ± 1.2 kg/m3
9941.9 kPa | 994.6 ± 1.2 kg/m3
9968.9 kPa | 994.7 ± 1.2 kg/m3
9997 kPa | 994.7 ± 1.2 kg/m3
10030 kPa | 994.7 ± 1.2 kg/m3
10057 kPa | 994.7 ± 1.2 kg/m3
10085 kPa | 994.7 ± 1.2 kg/m3
10118 kPa | 994.7 ± 1.2 kg/m3
10146 kPa | 994.8 ± 1.2 kg/m3
10174 kPa | 994.8 ± 1.2 kg/m3
10202 kPa | 994.8 ± 1.2 kg/m3
10236 kPa | 994.8 ± 1.2 kg/m3
10264 kPa | 994.8 ± 1.2 kg/m3
10297 kPa | 994.8 ± 1.2 kg/m3
10325 kPa | 994.9 ± 1.2 kg/m3
10354 kPa | 994.8 ± 1.2 kg/m3
10383 kPa | 994.8 ± 1.2 kg/m3
10417 kPa | 994.9 ± 1.2 kg/m3
10445 kPa | 994.9 ± 1.2 kg/m3
10474 kPa | 995 ± 1.2 kg/m3
10508 kPa | 994.9 ± 1.2 kg/m3
10537 kPa | 994.9 ± 1.2 kg/m3
10573 kPa | 995.1 ± 1.2 kg/m3
11095 kPa | 995.5 ± 1.2 kg/m3
11124 kPa | 995.3 ± 1.2 kg/m3
11154 kPa | 995.4 ± 1.2 kg/m3
11188 kPa | 995.3 ± 1.2 kg/m3
11217 kPa | 995.4 ± 1.2 kg/m3
11246 kPa | 995.5 ± 1.2 kg/m3
11280 kPa | 995.5 ± 1.2 kg/m3
11309 kPa | 995.4 ± 1.2 kg/m3
11338 kPa | 995.5 ± 1.2 kg/m3
11372 kPa | 995.5 ± 1.2 kg/m3
11399 kPa | 995.6 ± 1.2 kg/m3
11427 kPa | 995.6 ± 1.2 kg/m3
11649 kPa | 995.6 ± 1.2 kg/m3
11671 kPa | 995.7 ± 1.2 kg/m3
11694 kPa | 995.7 ± 1.2 kg/m3
11712 kPa | 995.7 ± 1.2 kg/m3
11728 kPa | 995.6 ± 1.2 kg/m3
11744 kPa | 995.7 ± 1.2 kg/m3
11761 kPa | 995.7 ± 1.2 kg/m3
11774 kPa | 995.7 ± 1.2 kg/m3
11800 kPa | 995.8 ± 1.2 kg/m3
11835 kPa | 995.8 ± 1.2 kg/m3
11840 kPa | 995.9 ± 1.2 kg/m3
11846 kPa | 995.8 ± 1.2 kg/m3
11853 kPa | 995.9 ± 1.2 kg/m3
11865 kPa | 995.8 ± 1.2 kg/m3
11879 kPa | 995.9 ± 1.2 kg/m3
11887 kPa | 995.8 ± 1.2 kg/m3
11892 kPa | 995.9 ± 1.2 kg/m3
11903 kPa | 995.8 ± 1.2 kg/m3
11916 kPa | 995.8 ± 1.2 kg/m3
11919 kPa | 995.9 ± 1.2 kg/m3
11920 kPa | 995.9 ± 1.2 kg/m3 and 995.8 ± 1.2 kg/m3 and 995.7 ± 1.2 kg/m3
11921 kPa | 995.9 ± 1.2 kg/m3
11922 kPa | 995.8 ± 1.2 kg/m3 and 995.9 ± 1.2 kg/m3
11923 kPa | 995.8 ± 1.2 kg/m3
12035 kPa | 995.9 ± 1.2 kg/m3
12053 kPa | 996 ± 1.2 kg/m3
12071 kPa | 995.9 ± 1.2 kg/m3
12092 kPa | 995.9 ± 1.2 kg/m3
12111 kPa | 995.9 ± 1.2 kg/m3
12129 kPa | 996 ± 1.2 kg/m3
12151 kPa | 996.1 ± 1.2 kg/m3
12169 kPa | 996 ± 1.2 kg/m3
12188 kPa | 995.9 ± 1.2 kg/m3
12212 kPa | 996 ± 1.2 kg/m3
12226 kPa | 996.1 ± 1.2 kg/m3
12248 kPa | 996 ± 1.2 kg/m3
12267 kPa | 996.1 ± 1.2 kg/m3
12285 kPa | 996.1 ± 1.2 kg/m3
12308 kPa | 996.1 ± 1.2 kg/m3
12326 kPa | 996.1 ± 1.2 kg/m3
12348 kPa | 996.1 ± 1.2 kg/m3
12367 kPa | 996.1 ± 1.2 kg/m3
12386 kPa | 996.2 ± 1.2 kg/m3
12409 kPa | 996.2 ± 1.2 kg/m3
12428 kPa | 996.2 ± 1.2 kg/m3
12448 kPa | 996.1 ± 1.2 kg/m3
12468 kPa | 996.2 ± 1.2 kg/m3
12490 kPa | 996.3 ± 1.2 kg/m3
12509 kPa | 996.3 ± 1.2 kg/m3
12529 kPa | 996.2 ± 1.2 kg/m3
12552 kPa | 996.3 ± 1.2 kg/m3
12571 kPa | 996.1 ± 1.2 kg/m3
12591 kPa | 996.2 ± 1.2 kg/m3
12610 kPa | 996.3 ± 1.2 kg/m3
12634 kPa | 996.3 ± 1.2 kg/m3
12654 kPa | 996.2 ± 1.2 kg/m3
12673 kPa | 996.3 ± 1.2 kg/m3
12697 kPa | 996.4 ± 1.2 kg/m3
12716 kPa | 996.4 ± 1.2 kg/m3
12736 kPa | 996.4 ± 1.2 kg/m3
